This note sets out measurements from PubChem BioAssay AID330 (DTP/NCI, 2004).

Each structure is given as a SMILES string. Where “and” joins values, the source holds several entries; their conditions need not be identical. Identical values can stand only once. Inconclusive results and toxic doses are left out.

This assay relates to P388 leukemia ip, CD2F1 mice, survival T/C. Kind of assay: NCI In Vivo Anticancer Drug Screen. Data for tumor model P388 Leukemia (intraperitoneal) in CD2F1 (CDF1) mice. The following applies: endpoint: median survival time, higher = longer survival. An outline of the steps:
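Mice carrying the transplanted tumor received test compound or vehicle. Survival was recorded in each group, and the value is the treated-group measurement divided by that of the vehicle-treated control group.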

The mark [1] stands for this setting: dose: 100.0 mg/kg/injection, schedule: Q04DX003 (ip), vehicle: saline with Tween-80.
Where [2] appears, read: dose: 60.0 mg/kg/injection, schedule: Q01DX005 (ip), vehicle: Klucel (hydroxypropylcellulose) (HPC).
[3] abbreviates: dose: 200.0 mg/kg/injection, schedule: Q04DX003 (ip), vehicle: saline with Tween-80.
Where [4] appears, read: dose: 100.0 mg/kg/injection, schedule: Q01DX001 (ip), vehicle: Klucel (hydroxypropylcellulose) (HPC).
The mark [5] stands for this setting: dose: 200.0 mg/kg/injection, schedule: Q01DX001 (ip), vehicle: Klucel (hydroxypropylcellulose) (HPC).
[6] abbreviates: dose: 400.0 mg/kg/injection, schedule: Q01DX001 (ip), vehicle: Klucel (hydroxypropylcellulose) (HPC).
Setting [7] is: dose: 60.0 mg/kg/injection, schedule: Q01DX005 (ip), vehicle: saline with Tween-80.
Setting [8] is: dose: 120.0 mg/kg/injection, schedule: Q01DX005 (ip), vehicle: saline with Tween-80.
[9] abbreviates: dose: 50.0 mg/kg/injection, schedule: Q01DX005 (ip), vehicle: saline.
Setting [10] is: dose: 100.0 mg/kg/injection, schedule: Q01DX005 (ip), vehicle: saline.
The mark [11] stands for this setting: dose: 200.0 mg/kg/injection, schedule: Q01DX005 (ip), vehicle: saline.
Setting [12] is: dose: 50.0 mg/kg/injection, schedule: Q01DX009 (ip), vehicle: saline.
[13] abbreviates: dose: 100.0 mg/kg/injection, schedule: Q01DX009 (ip), vehicle: saline.

On to `O=C1c2ccccc2C(=O)c2c(O)ccc3cccc1c23`, for which the T/C is, setting by setting: (dose: 50.0 mg/kg/injection, schedule: Q01DX005 (ip), vehicle: Klucel + Tween-80) 92 % of control; (dose: 100.0 mg/kg/injection, schedule: Q01DX005 (ip), vehicle: Klucel + Tween-80) 92 % of control; (dose: 200.0 mg/kg/injection, schedule: Q01DX005 (ip), vehicle: Klucel + Tween-80) 92 % of control.

Regarding `CSc1nc(=S)c2[nH]c(C)nc2[nH]1`, the T/C runs as follows: (dose: 6.25 mg/kg/injection, schedule: Q04DX003 (ip), vehicle: saline) 96 % of control; (dose: 12.5 mg/kg/injection, schedule: Q04DX003 (ip), vehicle: saline) 96 % of control; (dose: 25.0 mg/kg/injection, schedule: Q04DX003 (ip), vehicle: saline) 100 % of control; (dose: 50.0 mg/kg/injection, schedule: Q04DX003 (ip), vehicle: saline) 100 % of control.

Take `Cc1cccn2c(N=O)cnc12`: the T/C under setting [1] was 98 % of control.

As to `Fc1ccccc1N=Cc1ccc(C=Nc2ccccc2F)cc1`, the T/C is, setting by setting: (dose: 15.0 mg/kg/injection, schedule: Q01DX005 (ip), vehicle: Klucel (hydroxypropylcellulose) (HPC)) 100 % of control; (dose: 30.0 mg/kg/injection, schedule: Q01DX005 (ip), vehicle: Klucel (hydroxypropylcellulose) (HPC)) 92 % of control; under setting [2], 95 % of control.

As for `O=C(O)C(c1ccccc1)C1CCCC1` (configuration not stated), the T/C (dose: 50.0 mg/kg/injection, schedule: Q04DX003 (ip), vehicle: saline with Tween-80) was 110 % of control; the T/C under setting [1] was 110 % of control; the T/C under setting [3] is 105 % of control.

With `COc1ccc2nc3ccccc3c(NCCCCCCCCNc3c4ccccc4nc4ccc(OC)cc34)c2c1`, the T/C (dose: 0.63 mg/kg/injection, schedule: Q01DX009 (ip), vehicle: other) is 113 % of control; the T/C (dose: 1.25 mg/kg/injection, schedule: Q01DX009 (ip), vehicle: other) was 109 % of control; the T/C (dose: 2.5 mg/kg/injection, schedule: Q01DX009 (ip), vehicle: other) is 104 % of control; the T/C (dose: 3.75 mg/kg/injection, schedule: Q01DX009 (ip), vehicle: other) was 109 % of control; the T/C (dose: 5.0 mg/kg/injection, schedule: Q01DX009 (ip), vehicle: other) was 113 % of control; the T/C (dose: 7.5 mg/kg/injection, schedule: Q01DX009 (ip), vehicle: other) was 120 % of control.

On to `FC(F)(F)c1nn2c(-c3cnns3)nnc2s1`, for which the T/C by setting is: under setting [4], 98 % of control; under setting [5], 99 % of control; under setting [6], 104 % of control.

`CCOP(=O)(Nc1cc2c(=O)n(C)cnc2cc1Cl)OCC`: the T/C by setting is: under setting [1], 105 % of control; under setting [3], 100 % of control.

Take `Cn1c(N)nc(N)c(NC=O)c1=O`: the T/C runs as follows: (dose: 50.0 mg/kg/injection, schedule: Q01DX005 (ip), vehicle: Klucel (hydroxypropylcellulose) (HPC)) 101 % of control; (dose: 100.0 mg/kg/injection, schedule: Q01DX005 (ip), vehicle: Klucel (hydroxypropylcellulose) (HPC)) 103 % of control; (dose: 200.0 mg/kg/injection, schedule: Q01DX005 (ip), vehicle: Klucel (hydroxypropylcellulose) (HPC)) 101 % of control.

For `CC(=O)NNc1cccc(Cl)n1`, the T/C reads like this: under setting [4], 98 % of control; under setting [5], 96 % of control; under setting [6], 97 % of control.

For `COc1ccccc1N/N=c1\c2nc3ccccc3nc1n(-c1ccccc1C)c(=S)n2-c1ccccn1`, the T/C was 102 % of control under setting [7] and 96 % of control under setting [8].

As for `CC(Cl)CN1CC(C)OC1=O` (configuration not stated), the T/C runs as follows: (dose: 25.0 mg/kg/injection, schedule: Q01DX001 (ip), vehicle: saline) 105 % of control; (dose: 50.0 mg/kg/injection, schedule: Q01DX001 (ip), vehicle: saline) 102 % of control; (dose: 100.0 mg/kg/injection, schedule: Q01DX001 (ip), vehicle: saline) 108 % of control; (dose: 200.0 mg/kg/injection, schedule: Q01DX001 (ip), vehicle: saline) 108 % of control.

On to `CCOC(=O)C(C)(C)CN1COCC1(C)C`, for which the T/C reads like this: (dose: 50.0 mg/kg/injection, schedule: Q01DX001 (ip), vehicle: saline with Tween-80) 104 % of control; (dose: 100.0 mg/kg/injection, schedule: Q01DX001 (ip), vehicle: saline with Tween-80) 104 % of control; (dose: 200.0 mg/kg/injection, schedule: Q01DX001 (ip), vehicle: saline with Tween-80) 118 % of control.

For the compound `COc1cc(C2=NCCc3cc4c(cc32)OCO4)cc(OC)c1OC`, the T/C reads like this: under setting [9], 100 % of control and 101 % of control; under setting [10], 105 % of control and 118 % of control; under setting [11], 152 % of control.

With `Cc1cc(NC(=O)c2ccc(C(=O)Nc3ccc(N=Nc4cc(S(=O)(=O)O)c5cccc(S(=O)(=O)O)c5c4)c(C)c3)cc2)ccc1N=Nc1cc(S(=O)(=O)O)c2cccc(S(=O)(=O)O)c2c1`, the T/C is 94 % of control (dose: 50.0 mg/kg/injection, schedule: Q01DX005 (ip), vehicle: saline with Tween-80); 93 % of control (dose: 100.0 mg/kg/injection, schedule: Q01DX005 (ip), vehicle: saline with Tween-80); 98 % of control (dose: 200.0 mg/kg/injection, schedule: Q01DX005 (ip), vehicle: saline with Tween-80).

With `O=C(O)CSc1ncccc1Nc1ccc([N+](=O)[O-])cn1`, the T/C was 102 % of control under setting [12] and 86 % of control under setting [13].

In the case of `CN(C)CCCC1(O)c2ccccc2CCc2ccccc21`, the T/C reads like this: (dose: 12.5 mg/kg/injection, schedule: Q01DX009 (ip), vehicle: saline) 103 % of control; (dose: 25.0 mg/kg/injection, schedule: Q01DX009 (ip), vehicle: saline) 108 % of control; under setting [12], 101 % of control and 119 % of control; under setting [13], 94 % of control.

For `COc1ccc2c(c1)[C@@]13CCCC[C@H]1[C@@H](C2)[N+](C)=CC3=NO`, the T/C under setting [2] is 105 % of control.

Regarding `NNC(=O)CCCCCCCCCCCCCCCO`, the T/C was 97 % of control (dose: 12.5 mg/kg/injection, schedule: Q01DX009 (ip), vehicle: saline with Tween-80); 88 % of control (dose: 25.0 mg/kg/injection, schedule: Q01DX009 (ip), vehicle: saline with Tween-80); 88 % of control (dose: 50.0 mg/kg/injection, schedule: Q01DX009 (ip), vehicle: saline with Tween-80).

Consider `N#Cc1ccc(OC(=O)Nc2c(Br)cc(Br)cc2Br)cc1`, for which the T/C was 93 % of control under setting [7]; 99 % of control under setting [8]; 99 % of control (dose: 240.0 mg/kg/injection, schedule: Q01DX005 (ip), vehicle: saline with Tween-80).

Take `CNc1nnnn1C`: the T/C was 98 % of control under setting [9], 98 % of control under setting [10] and 98 % of control under setting [11].

Turning to `CCCCCCCCCCCCC1OCN2CCCCC12` (configuration not stated), the T/C under setting [9] was 106 % of control, the T/C under setting [10] was 100 % of control and the T/C under setting [11] was 113 % of control.

With `Cn1cnnc1[N+](=O)[O-]`, the T/C reads like this: (dose: 25.0 mg/kg/injection, schedule: Q04DX003 (ip), vehicle: saline sonified) 100 % of control; (dose: 50.0 mg/kg/injection, schedule: Q04DX003 (ip), vehicle: saline sonified) 95 % of control; (dose: 100.0 mg/kg/injection, schedule: Q04DX003 (ip), vehicle: saline sonified) 90 % of control.

For `COC(=O)C1(C)CCCC2(C)c3cc(O)c(C(C)C)cc3CCC12` (configuration not stated), the T/C is 94 % of control under setting [4], 94 % of control under setting [5] and 100 % of control under setting [6].

Consider `Cc1ccc(S(=O)(=O)N/N=C2/C=CC3(CCCCC3)CC2)cc1`, for which the T/C (dose: 50.0 mg/kg/injection, schedule: Q01DX009 (ip), vehicle: Klucel (hydroxypropylcellulose) (HPC)) was 109 % of control; the T/C (dose: 100.0 mg/kg/injection, schedule: Q01DX009 (ip), vehicle: Klucel (hydroxypropylcellulose) (HPC)) was 102 % of control; the T/C (dose: 200.0 mg/kg/injection, schedule: Q01DX009 (ip), vehicle: Klucel (hydroxypropylcellulose) (HPC)) is 111 % of control.

For `CCOC(=O)CCC1(C(=O)OC)C(=O)CCCCC/C=C/1C(=O)OC` (configuration not stated), the T/C (dose: 100.0 mg/kg/injection, schedule: Q01DX009 (ip), vehicle: saline with Tween-80) is 113 % of control; the T/C (dose: 200.0 mg/kg/injection, schedule: Q01DX009 (ip), vehicle: saline with Tween-80) was 104 % of control; the T/C (dose: 400.0 mg/kg/injection, schedule: Q01DX009 (ip), vehicle: saline with Tween-80) was 104 % of control.
